According to patent US20260250325A1, “Antiviral Polypeptide Membrane Fusion Inhibitor, and Preparation Method and Application Thereof” (priority 2025, published 2026):
Where a SMILES comes first, the peptide text is derived from it. The star is where a group is joined. Succinyl(4-O-cholesteryl) = CC(C)CCC[C@@H](C)[C@H]1CC[C@H]2[C@@H]3CC=C4C[C@@H](OC(=O)CCC(=O)*)CC[C@]4(C)[C@H]3CC[C@]12C

Assays:
[1] = target: T1, hMPV-N46 (127-172) (Human metapneumovirus, UniProt Q6WB98); experiment: SPR affinity to hMPV-N46 coupled on CM5 chip; format: binding
T1 construct: hMPV-N46 (127-172)
Procedure: (§1) hMPV and hPIV were two viruses having a typical Class I fusion protein-F protein. An F protein precursor F0 was cracked into F1 and F2 subunits. […] When the compound flowed through a chip surface, changes in an SPR signal were monitored in real time, binding and dissociation processes were recorded, and a binding rate constant (ka) and a dissociation rate constant (kd) were further obtained through kinetic analysis, thereby calculating an equilibrium dissociation constant (KD=kd/ka).
(§2) A CM5 chip with a catalog number 29149603, an amino coupling reagent kit with a catalog number BR100050, HBS-EP+Buffer (10×), sodium acetate (pH 4.0), and a 10 mM glycine-HCl buffer (pH 2.0) were all purchased from GE Health.
(§3) CM5 chip coupling: Channels 2 and 4 of the CM5 chip were activated for 7 min by using a freshly-prepared mixture of 50 mM Hydroxy succinimide (NHS) and 200 mM 1-(3-Dimethylaminopropyl)-3-ethylcarbodiimide (EDC) according to 1:1; and then, hMPV-N46 or hPIV-N51 was diluted and dissolved with sodium acetate with 4.0 pH to a concentration of 30 μM, with a flow rate of 10 μl/min and time of 600 s. An experimental buffer was HBS-EP+buffer (1×). Finally, the chip was blocked with 1 M ethanolamine. The instrument was set to a temperature of 25° C.
(§4) Affinity detection: the buffer used in the experiment was HBS-EP+buffer (1×), and a multi-cycle dynamic mode was used. Channels 1 and 3 of the chip served as blank reference channels; polypeptides to be detected sequentially flowed through Channels 2 and 4 at concentrations of 0 μM, 0.04 µM, 0.12 µM, 0.37 μM, 1.11 µM, 3.33 µM, 10 µM, and 30 μM; the flow rate was 30 μl/min, binding was performed for 180 s, and dissociation was performed for 120 s. Finally, the chip was regenerated by injecting 10 mM glycine (pH 2.0). The instrument was set to a temperature of 25° C.

[2] = target: T2, hPIV-N51 (139-189) (Human parainfluenza 3 virus, UniProt P06828); experiment: SPR affinity to hPIV-N51 coupled on CM5 chip; format: binding
T2 construct: hPIV-N51 (139-189)
Procedure: as §1, §2, §3, §4

[3] = system: hPIV3 C243 virus strain; format: cell-based, hPIV; settings: LLC-MK2 cells, hPIV3 C243, plaque reduction; read-out: EC50 against hPIV3 virus
Procedure: Rhesus monkey kidney cells (LLC-MK2) were sourced from the ATCC, with a catalog number CCL-7.1. The cells were cultured in a DMEM culture solution in which 10% fetal bovine serum, 1% non-essential amino acids, 1% sodium pyruvate, 1% L-glutamine, 100 U/ml penicillin, and 100 μg/ml streptomycin were added.
An HPIV-3 plaque experiment culture medium consisted of a DMEM culture solution added with 2% fetal bovine serum, 1% non-essential amino acids, 1% sodium pyruvate, 1% L-glutamine, 100 U/ml penicillin, and 100 μg/ml streptomycin.
The hPIV Type 3 (hPIV3 C243) was sourced from the ATCC, with a catalog number VR-93.
This study used the plaque reduction experiment to detect the in-vitro activity of the test sample against the hPIV3 C243 virus strain, and Human Anti-HPIV3 Monoclonal Antibody, clone PIA174 was an experimental system control. The test sample and a system experimental antibody were tested at 8 concentrations in duplicated wells.
The LLC-MK2 cells were digested with trypsin and then diluted to a concentration of 400,000 cells per milliliter by using a cell culture solution containing 2% serum. The diluted cells were added to a 96-well cell test board, with 100 μL per well, corresponding to 40,000 cells per well. The cells were cultured overnight in a 37° C. incubator with 5% CO2.
On the next day, the sample diluted at a fold ratio and an equal volume of virus (approximately 200 PFU per well) were well mixed and incubated at 37° C. in 5% CO2 for 1 hour. Then, the culture solution in the 96-well cell test board was discarded, the sample virus mixed solution (100 μL) was added to the 96-well cell culture plate, and incubated at 37° C. in 5% CO2 for 2 hours. After 2 h, the sample virus mixed solution was discarded, 200 μL of an experiment culture medium containing the test sample with a corresponding concentration was added, and the culture solution contained 0.8% CMC. A final concentration of DMSO in the culture solution was 0.5%. A control antibody was directly added to the experiment culture solution containing 0.8% CMC. A cell control (cells, without compound treatment or viral infection) and a viral control (cell infection virus, without compound treatment) were set. The cells were cultured for 1 day in the 37° C. incubator with 5% CO2.
The cells were fixed with 4% paraformaldehyde, and then permeabilization was performed with 0.5% Triton X-100. After the plate was washed with DPBS, a hPIV specific antibody (1:2000 dilution) was added and incubated at 37° C. for 1.5 h. Then, a secondary antibody (1:500 dilution) was added and incubated at 37° C. for 1 hour. The secondary antibody was discarded, a TrueBlue solution was added, dyeing was performed for approximately 10 minutes; and the plate was washed with running water and then air-dried, and the number of spots in each well was counted by using a microplate imaging counter.
Raw data was used for calculating the antiviral activity of the samples, and a calculation formula was shown as follows.
% inhibition rate=100−(sample value-cell control average value)/(virus control average value-cell control average value)×100
Non-linear fitting analysis was performed on the inhibition rate of the sample by using GraphPad Prism (version 10), so as to calculate an EC50 value for the sample. A fitting formula was log (inhibitor) vs. response-Variable slope (four parameters).

T2 sequence (P06828 139-189): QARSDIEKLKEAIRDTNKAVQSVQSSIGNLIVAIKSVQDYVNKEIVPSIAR
T1 sequence (Q6WB98 127-172): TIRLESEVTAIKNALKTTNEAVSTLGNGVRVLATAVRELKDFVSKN

Structure (SMILES) | Kd [1] [nM] | Kd [2] [nM] | EC50 [3] [nM]
CC[C@H](C)[C@H](NC(=O)[C@H](CO)NC(=O)[C@H](C)NC(=O)[C@H](CC(=O)O)NC(=O)[C@H](Cc1ccccc1)NC(=O)[C@H](CCC(=O)O)NC(=O)[C@H](CC(=O)O)NC(C)=O)C(=O)N[C@@H](CO)C(=O)N[C@@H](CCC(N)=O)C(=O)N[C@H](C(=O)N[C@@H](CC(N)=O)C(=O)N[C@@H](CCC(=O)O)C(=O)N[C@@H](CCCCN)C(=O)N[C@H](C(=O)N[C@@H](CC(N)=O)C(=O)N[C@@H](CCC(N)=O)C(=O)N[C@@H](CO)C(=O)N[C@@H](CC(C)C)C(=O)N[C@@H](CCC(=O)O)C(=O)N[C@@H](CCC(=O)O)C(=O)N[C@H](C(=O)N[C@@H](CCCNC(=N)N)C(=O)N[C@@H](CCCCN)C(=O)N[C@@H](CO)C(=O)N[C@@H](CC(=O)O)C(=O)N[C@@H](CCC(=O)O)C(=O)N[C@@H](CC(C)C)C(=O)N[C@@H](CC(C)C)C(=O)N[C@@H](Cc1c[nH]cn1)C(=O)N[C@@H](CC(N)=O)C(=O)N[C@@H](CCC(=O)O)C(=O)N[C@@H](C)C(=O)N[C@@H](C)C(=O)N[C@@H](C)C(=O)N[C@@H](CCCCN)C(=O)N[C@@H](CCCCNC(=O)CCC(=O)O[C@H]1CC[C@@]2(C)C(=CC[C@H]3[C@@H]4CC[C@H]([C@H](C)CCCC(C)C)[C@@]4(C)CC[C@@H]32)C1)C(N)=O)[C@@H](C)CC)[C@@H](C)CC)C(C)C [Compound 28] (Ac-DEFDASISQVNEKINQSLEEIRKSDELLHNEAAAKK(Succinyl(4-O-cholesteryl))-NH2) | 209 | 983000 | 54.4
CC[C@H](C)[C@H](NC(=O)[C@H](CCCCN)NC(=O)[C@H](CCC(=O)O)NC(=O)[C@H](CC(C)C)NC(=O)[C@H](CO)NC(=O)[C@H](CCC(N)=O)NC(=O)[C@H](CC(N)=O)NC(=O)[C@@H](NC(=O)[C@H](CCCCN)NC(=O)[C@H](CCC(=O)O)NC(=O)[C@H](CC(N)=O)NC(=O)[C@@H](NC(=O)[C@H](CCC(N)=O)NC(=O)[C@H](CO)NC(=O)[C@H](C)NC(=O)[C@H](CC(=O)O)NC(=O)[C@H](Cc1ccccc1)NC(=O)[C@@H](NC(=O)[C@H](CC(C)C)NC(=O)[C@H](CCC(=O)O)NC(=O)[C@H](CC(=O)O)NC(=O)[C@H](Cc1ccc(O)cc1)NC(C)=O)C(C)C)C(C)C)[C@@H](C)CC)C(=O)N[C@@H](CCCNC(=N)N)C(=O)N[C@@H](CCCCN)C(=O)N[C@@H](CO)C(=O)N[C@@H](CC(=O)O)C(=O)N[C@@H](CCC(=O)O)C(=O)N[C@@H](CC(C)C)C(=O)N[C@@H](CC(C)C)C(=O)N[C@@H](Cc1c[nH]cn1)C(=O)N[C@@H](CC(N)=O)C(=O)N[C@H](C(=O)N[C@@H](CCC(=O)O)C(=O)N[C@@H](C)C(=O)N[C@@H](C)C(=O)N[C@@H](C)C(=O)N[C@@H](CCCCN)C(=O)N[C@@H](CCCCNC(=O)CCC(=O)O[C@H]1CC[C@@]2(C)C(=CC[C@H]3[C@@H]4CC[C@H]([C@H](C)CCCC(C)C)[C@@]4(C)CC[C@@H]32)C1)C(N)=O)C(C)C [Compound 30] (Ac-YDELVFDASQVNEKINQSLEKIRKSDELLHNVEAAAKK(Succinyl(4-O-cholesteryl))-NH2) | 187 | 1020 | 48.2
CC[C@H](C)[C@H](NC(=O)[C@H](CCCCN)NC(=O)[C@H](CCCCN)NC(=O)[C@H](CC(C)C)NC(=O)[C@H](CO)NC(=O)[C@H](CCC(=O)O)NC(=O)[C@H](CCC(=O)O)NC(=O)[C@@H](NC(=O)[C@H](CCCCN)NC(=O)[C@H](CCCCN)NC(=O)[C@H](CC(N)=O)NC(=O)[C@@H](NC(=O)[C@H](CCC(=O)O)NC(=O)[C@H](CCC(=O)O)NC(=O)[C@@H](NC(=O)[C@H](CCCCN)NC(=O)[C@H](CCCCN)NC(=O)[C@H](CC(=O)O)NC(=O)[C@H](Cc1ccccc1)NC(=O)[C@H](CCC(=O)O)NC(=O)[C@H](CC(=O)O)NC(=O)[C@H](Cc1c[nH]c2ccccc12)NC(C)=O)[C@@H](C)CC)C(C)C)[C@@H](C)CC)C(=O)N[C@@H](CCC(=O)O)C(=O)N[C@@H](CCC(=O)O)C(=O)N[C@@H](CO)C(=O)N[C@@H](CC(=O)O)C(=O)N[C@@H](CCCCN)C(=O)N[C@@H](CCCCN)C(=O)N[C@@H](CC(C)C)C(=O)N[C@@H](CCC(=O)O)C(=O)N[C@@H](CCC(=O)O)C(=O)N[C@H](C(=O)N[C@@H](CC(N)=O)C(=O)N[C@@H](C)C(=O)N[C@@H](CCC(=O)O)C(=O)N[C@@H](C)C(=O)N[C@@H](C)C(=O)N[C@@H](C)C(=O)N[C@@H](CCCCN)C(=O)N[C@@H](CCCCNC(=O)CCC(=O)O[C@H]1CC[C@@]2(C)C(=CC[C@H]3[C@@H]4CC[C@H]([C@H](C)CCCC(C)C)[C@@]4(C)CC[C@@H]32)C1)C(N)=O)C(C)C [Compound 40] (Ac-WDEFDKKIEEVNKKIEESLKKIEESDKKLEEVNAEAAAKK(Succinyl(4-O-cholesteryl))-NH2) | 2470 | 2270 | 22.2
CC[C@H](C)[C@H](NC(=O)[C@H](CCCCN)NC(=O)[C@H](CCCCN)NC(=O)[C@H](CC(C)C)NC(=O)[C@H](CO)NC(=O)[C@H](CCC(=O)O)NC(=O)[C@H](CCC(=O)O)NC(=O)[C@@H](NC(=O)[C@H](CCCCN)NC(=O)[C@H](CCCCN)NC(=O)[C@H](CC(N)=O)NC(=O)[C@@H](NC(=O)[C@H](CCC(=O)O)NC(=O)[C@H](CCC(=O)O)NC(=O)[C@@H](NC(=O)[C@H](CCCCN)NC(=O)[C@H](CCCCN)NC(=O)[C@H](CC(=O)O)NC(=O)[C@H](Cc1ccccc1)NC(=O)[C@H](CCC(=O)O)NC(=O)[C@H](CC(=O)O)NC(=O)[C@H](Cc1c[nH]c2ccccc12)NC(C)=O)[C@@H](C)CC)C(C)C)[C@@H](C)CC)C(=O)N[C@@H](CCC(=O)O)C(=O)N[C@@H](CCC(=O)O)C(=O)N[C@@H](CO)C(=O)N[C@@H](CC(=O)O)C(=O)N[C@@H](CCCCN)C(=O)N[C@@H](CCCCN)C(=O)N[C@@H](CC(C)C)C(=O)N[C@@H](CCC(=O)O)C(=O)N[C@@H](CCC(=O)O)C(=O)N[C@H](C(=O)N[C@@H](CC(N)=O)C(=O)N[C@@H](CCC(=O)O)C(=O)N[C@@H](C)C(=O)N[C@@H](C)C(=O)N[C@@H](C)C(=O)N[C@@H](CCCCN)C(=O)N[C@@H](CCCCNC(=O)CCC(=O)O[C@H]1CC[C@@]2(C)C(=CC[C@H]3[C@@H]4CC[C@H]([C@H](C)CCCC(C)C)[C@@]4(C)CC[C@@H]32)C1)C(N)=O)C(C)C [Compound 41] (Ac-WDEFDKKIEEVNKKIEESLKKIEESDKKLEEVNEAAAKK(Succinyl(4-O-cholesteryl))-NH2) | 4730 | 492 | 71.1
